# Results as given in PMC9743148 (Annals of oncology : official journal of the European …, 2020).
# “Also recorded” adds a separate entry of the source. Read-outs that look alike come from different tables or passages of the source.
# Tests used:
# [1] = tested on: patients with advanced solid tumors; test: Dose-limiting toxicity, MTD and RP2D determination; assay type: in vivo, human
# [2] = Dose-proportionality power regression of PK parameters; assay type: in vivo, human; details: 8–200-mg dose range t.i.w.
# [3] = for T1/2 / Tmax: 20 mg q.d.
smiles,measurement,setting,value
C=CC(=O)N1CC[C@H](n2nc(C#Cc3cc(OC)cc(OC)c3)c3c(N)ncnc32)C1 [futibatinib],Dose-limiting toxicities,"[1]; 4, 8, 16, or 20 mg q.d.",No DLTs were observed
same,Recommended phase II dose (RP2D),"[1]; human, in vivo, oral, 21 days",20 mg q.d.
same,Dose-limiting toxicities,[1]; other t.i.w. cohorts including 200 mg,no DLTs were reported
same,Maximum tolerated dose (MTD),[1]; q.d. schedule,20 mg q.d.
same,Maximum tolerated dose (MTD),"[1]; t.i.w. schedule, up to 200 mg",no MTD was defined; also recorded: not defined
same,Dose proportionality of Cmax,[2],less than a dose-proportional manner
same,T1/2,"[3]; cycle 1 Day 1, mean",2.94 h
same,Tmax,"[3]; cycle 1 Day 1, median",1.92 h
same,T1/2,"[3]; cycle 1 Day 21, mean",3.44 h
same,Tmax,"[3]; cycle 1 Day 21, median",3.52 h
same,Accumulation with repeated doses,[3]; both schedules,no significant accumulation
same,Urinary excretion of futibatinib,[3]; urine,lower than 0.01 % of the dose
same,Patients with CCA experiencing PR or SD,advanced solid tumors; 18 of 24 patients with cholangiocarcinoma,75%
same,Best overall response of confirmed partial response (PR),advanced solid tumors; across cohorts (n = 86),five
same,Responses lasting >6 months,advanced solid tumors; five responders,three
same,Responses occurring within 3 months of initiating futibatinib,advanced solid tumors; five responders,Four of five
